Reference: ChEMBL document CHEMBL4118280, “An imidazole based H-Phe-Phe-NH2 peptidomimetic with anti-allodynic effect in spared nerve injury mice” (Bioorg Med Chem Lett, 2018)
The source made the active and inactive calls.

Assays:
Mus musculus [1] = assay: Antiallodynic activity in ip dosed NMRI mouse model of spared nerve injury-induced mechanical allodynia assessed as pain relief administered 14 days post spared nerve injury surgery measured at 15 to 60 mins post dose by Von Frey filament assay; assay type: functional
Mus musculus [2] = assay: Antiallodynic activity in NMRI mouse model of spared nerve injury-induced mechanical allodynia assessed as pain relief at 12 umol/kg, ip administered 14 days post spared nerve injury surgery measured at 45 mins post dose by Von Frey filament assay; assay type: functional, organism-based
Mus musculus [3] = assay: Antiallodynic activity in NMRI mouse model of spared nerve injury-induced mechanical allodynia assessed as pain relief at 585 umol/kg, ip administered 14 days post spared nerve injury surgery measured at 60 mins post dose by Von Frey filament assay; assay type: functional, organism-based
Mus musculus [4] = assay: Antiallodynic activity in NMRI mouse model of spared nerve injury-induced mechanical allodynia assessed as pain relief at 585 umol/kg, ip administered 14 days post spared nerve injury surgery measured at 30 mins post dose Von Frey filament assay; assay type: functional, organism-based
Mus musculus [5] = assay: Antiallodynic activity in NMRI mouse model of spared nerve injury-induced mechanical allodynia assessed as pain relief at 585 umol/kg, ip administered 14 days post spared nerve injury surgery measured at 180 mins post dose by Von Frey filament assay; assay type: functional, organism-based
[6] = Half life in NMRI mouse plasma at 4 uM after 180 mins by LC-MS/MS analysis; assay type: ADME, cell-free
Mus musculus [7] = assay: Antiallodynic activity in NMRI mouse model of spared nerve injury-induced mechanical allodynia assessed as increase in mechanical threshold at 185 nmol/kg, ip administered 14 days post spared nerve injury surgery and co-treated with 1850 nmol/kg, ip D-SP1-7 by Von Frey filament assay; assay type: functional, organism-based
[8] = Cytotoxicity against Sprague-Dawley rat primary cortical cells assessed as reduction in cell viability at 10^-5 to 10^-9 M after 24 hrs by MTT assay; assay type: cell-based
[9] = Cytotoxicity against Sprague-Dawley rat primary cortical cells assessed as reduction in […] at 10^-5 to 10^-9 M after 24 hrs by LDH assay; assay type: cell-based
Mus musculus [10] = assay: Antiallodynic activity in NMRI mouse model of spared nerve injury-induced mechanical allodynia assessed as increase in mechanical threshold at 1.85 to 1850 nmol/kg, ip administered 14 days post spared nerve injury surgery measured at 45 mins post dose by Von Frey filament assay; assay type: functional, organism-based
[11] = Efflux ratio of apparent permeability from basolateral to apical over apical to basolateral side in human Caco2 cells at 100 uM after 15 to 120 mins by LC-MS analysis; assay type: ADME, cell-based; conditions: Caco-2
[12] = Apparent permeability from basolateral to apical side in human Caco2 cells assessed as mass balance at 100 uM after 15 to 120 mins by LC-MS analysis; assay type: ADME, cell-based; conditions: Caco-2, read-out: Activity
Mus musculus [13] = assay: Antiallodynic activity in NMRI mouse model of spared nerve injury-induced mechanical allodynia assessed as increase in mechanical threshold at 1.85 to 1850 nmol/kg, ip administered 14 days post spared nerve injury surgery measured at 30 mins post dose by Von Frey filament assay; assay type: functional, organism-based
Mus musculus [14] = assay: Antiallodynic activity in NMRI mouse model of spared nerve injury-induced mechanical allodynia assessed as increase in mechanical threshold at 185 nmol/kg, ip administered 14 days post spared nerve injury surgery measured at 15 to 60 mins post dose by Von Frey filament assay; assay type: functional, organism-based
Mus musculus [15] = assay: Antiallodynic activity in NMRI mouse model of spared nerve injury-induced mechanical allodynia assessed as increase in mechanical threshold at 185 to 1850 nmol/kg, ip administered 14 days post spared nerve injury surgery measured at 15 to 60 mins post dose by Von Frey filament assay; assay type: functional, organism-based
Mus musculus [16] = assay: Antiallodynic activity in ip dosed NMRI mouse model of spared nerve injury-induced mechanical allodynia assessed as increase in mechanical threshold administered 14 days post spared nerve injury surgery by Von Frey filament assay; assay type: functional, organism-based
Mus musculus [17] = assay: Potency index, ratio of morphine ED50 to compound ED50 for antiallodynic activity in ip dosed NMRI mouse model of spared nerve injury-induced mechanical allodynia by Von Frey filament assay; assay type: functional
[18] = Half life in human plasma at 4 uM after 180 mins by LC-MS/MS analysis; assay type: ADME, cell-free
[19] = Apparent permeability from basolateral to apical side in human Caco2 cells at 100 uM after 15 to 120 mins by LC-MS analysis; assay type: ADME, cell-based; conditions: Caco-2
[20] = Apparent permeability from apical to basolateral side in human Caco2 cells at 100 uM after 15 to 120 mins by LC-MS analysis; assay type: ADME, cell-based; conditions: Caco-2
Mus musculus [21] = assay: Potency index, ratio of gabapentin ED50 to compound ED50 for antiallodynic activity in ip dosed NMRI mouse model of spared nerve injury-induced mechanical allodynia by Von Frey filament assay; assay type: functional
[22] = Apparent permeability from apical to basolateral side in human Caco2 cells assessed as mass balance at 100 uM after 15 to 120 mins by LC-MS analysis; assay type: ADME, cell-based; conditions: Caco-2, read-out: Activity

| Compound | ED50 (Mus musculus [1]) [µmol/kg] | half-life at 4 µM [6] [min] | efflux ratio at 100 µM [11] | recovery at 100 µM [12] [%] | Activity (Mus musculus [14]) | Papp B→A at 100 µM [19] [×10⁻⁶ cm/s] | Papp A→B at 100 µM [20] [×10⁻⁶ cm/s] | recovery at 100 µM [22] [%] | also measured |
| --- | --- | --- | --- | --- | --- | --- | --- | --- | --- |
| CN1CC[C@]23c4c5ccc(O)c4O[C@H]2[C@@H](O)C=C[C@H]3[C@H]1C5 [MORPHINE] | 6.5 | – | – | – | – | – | – | – | Activity (Mus musculus [2]): Active |
| NCC1(CC(=O)O)CCCCC1 [GABAPENTIN] | 336 | – | – | – | – | – | – | – | Activity (Mus musculus [3]): Active; Activity (Mus musculus [4]): Active; Activity (Mus musculus [5]): inactive |
| H-RPKPQQF-OH | – | 4.4 | – | – | – | – | – | – | – |
| NC(=O)[C@H](Cc1ccccc1)NC(=O)c1[nH]cnc1-c1ccccc1 | 0.21 | ≥ 180 | 19 | 67 | Active | 16 | 0.84 | 65 | Activity (Mus musculus [7]): inactive; Activity [8]: Non-Toxic; Activity [9]: Non-Toxic; Activity (Mus musculus [10]): inactive; Activity (Mus musculus [13]): Active; Activity (Mus musculus [15]): Active; Activity (Mus musculus [16]): Dose-dependent effect; Ratio ED50 (Mus musculus [17]): 30; half-life at 4 µM [18]: > 180 min; Ratio ED50 (Mus musculus [21]): 1600 |
| OC[C@@H](O)[C@@H](O)[C@H](O)[C@H](O)CO [MANNITOL] | – | – | 1.4 | 99 to 103 | – | 0.2 | 0.1 | 97 to 101 | – |
| H-RPKPQQF-NH2 | – | 6.4 | – | – | Active | – | – | – | – |
